In patent publication US12186283B2, “Bismuth-thiol compositions and methods of use” (Microbion Corporation, priority 2018, dated 2025):
≈ marks a conversion by molar mass, not a printed value. Where two headings read alike, the source gives them in different places.

Columns and labels:
E. coli ATCC 25922 = conditions: control strain ATCC 25922 E. coli; per CLSI M100-S24 or provided by Microbion; cited from earlier work
[1] = system: Burkholderia spp. (B. cepacia complex); assay: MIC against CF isolates (Example 5); type: cell-based; conditions: Table 4A
S. aureus ATCC 29213 [2] = conditions: control strain ATCC 29213 S. aureus; per CLSI M100-S24 or provided by Microbion; cited from earlier work
[3] = system: Staphylococcus aureus (MRSA); conditions: S. aureus MMX 101 (ATCC 29213); cited from earlier work
[4] = system: beta-hemolytic streptococci (S. pyogenes, S. agalactiae); assay: Broth microdilution MIC (Example 11); type: cell-based, Streptococcus pyogenes, Streptococcus agalactiae
[5] = system: Enterococcus spp. (E. faecalis, E. faecium); assay: Broth microdilution MIC (Example 11); type: cell-based; conditions: Enterococcus faecium, VRE, E. faecium MMX 485; VRE, vanA, LevR, CipR, EryR; read-out: MIC
[6] = system: S. pneumoniae (pneumococci); conditions: S. pneumoniae MMX 6837 (ATCC 49619); cited from earlier work
Pseudomonas aeruginosa [7] = assay: Broth microdilution MIC (Example 12)
Klebsiella pneumoniae = assay: Broth microdilution MIC (Example 12)
S. aureus ATCC 29213 [8] = conditions: S. aureus ATCC 29213, QC organism; cited from earlier work
S. aureus ATCC 29213 [9] = assay: Broth microdilution MIC, ATCC QC organism (Example 12); type: cell-based, Staphylococcus aureus; conditions: S. aureus ATCC 29213, QC organism
Experimental: The in vitro activity of BisEDT and two additional bismuth-thiol investigational agents (MB-2B and MB-6) was determined for isolates of Escherichia coli, Klebsiella pneumoniae, Pseudomonas aeruginosa and Acinetobacter baumannii characterized for extended-spectrum β-lactamases (ESBL) and/or carbapenem resistance. In addition, vancomycin-intermediate Staphylococcus aureus (VISA) were evaluated. The majority of the isolates tested in the current study were multidrug-resistant (MDR) as defined by resistance to at least three different antibiotic classes. Susceptibility to the investigational compounds and relevant comparators was determined by broth microdilution conducted in accordance with guidelines from the Clinical and Laboratory Standards Institute (CLSI; 2,3).

Escherichia coli [10] = assay: Broth microdilution MIC (Example 12)
Acinetobacter baumannii = assay: Broth microdilution MIC (Example 12)
Escherichia coli [11] = conditions: E. coli ATCC 25922, QC organism; cited from earlier work
[12] = system: vancomycin-intermediate Staphylococcus aureus (VISA); assay: Broth microdilution MIC (Example 12)
Pseudomonas aeruginosa [13] = conditions: P. aeruginosa ATCC 27853, QC organism; cited from earlier work
[14] = system: S. pneumoniae (pneumococci); assay: Broth microdilution MIC (Example 11); type: cell-based, Streptococcus pneumoniae

NCC[C@H](O)C(=O)N[C@@H]1C[C@H](N)[C@@H](O[C@H]2O[C@H](CN)[C@@H](O)[C@H](O)[C@H]2O)[C@H](O)[C@H]1O[C@H]1O[C@H](CO)[C@@H](O)[C@H](N)[C@H]1O [Amikacin]
Expected MIC: acceptable range (E. coli ATCC 25922): 0.5 to 4 µg/mL | Expected MIC: goal (E. coli ATCC 25922): 1 to 2 µg/mL | MIC ([1]; strain AU197, B. cenocepacia (B cepacia complex)): > 64 µg/mL | MIC ([1]; strain BC5b, B. multivorans (B cepacia complex)): > 64 µg/mL | MIC ([1]; strain BC15, B. cenocepacia (B cepacia complex)): > 64 µg/mL | MIC ([1]; strain BC17, B. cepacia (B cepacia complex)): > 64 µg/mL | Expected MIC: acceptable range (S. aureus ATCC 29213 [2]): 1 to 4 µg/mL | Expected MIC: goal (S. aureus ATCC 29213 [2]): 2 µg/mL

CC[C@H]1OC(=O)[C@H](C)[C@@H](O[C@H]2C[C@@](C)(OC)[C@@H](O)[C@H](C)O2)[C@H](C)[C@@H](O[C@@H]2O[C@H](C)C[C@H](N(C)C)[C@H]2O)[C@](C)(O)C[C@@H](C)C(=O)[C@H](C)[C@@H](O)[C@]1(C)O [Erythromycin]
CLSI QC range (MIC) [3]: (0.25-1) μg/mL | MIC ([4]; S. agalactiae MMX 3741, ERY^R CC^R, read-out: MIC): 8 µg/mL (≈ 10.9 µM) | MIC ([4]; S. agalactiae MMX 3743, ERY^R CC^R, read-out: MIC): > 8 µg/mL | MIC ([4]; S. agalactiae MMX 4077, ERY^R CC^R, read-out: MIC): > 8 µg/mL | MIC ([4]; S. agalactiae MMX 4079, ERY^R CC^R Pen^R MEM^R, read-out: MIC): > 8 µg/mL | MIC ([4]; S. agalactiae MMX 4086, ERY^R CC^R, read-out: MIC): > 8 µg/mL | MIC [5]: > 64 µg/mL | MIC, CLSI QC range [6]: (0.03-0.12) μg/mL

C[C@H]1COc2c(N3CCN(C)CC3)c(F)cc3c(=O)c(C(=O)O)cn1c23 [LVX]
MIC (Pseudomonas aeruginosa [7]; P. aeruginosa ATCC 27853, QC organism): 0.5 µg/mL (≈ 1.38 µM) | MIC (Pseudomonas aeruginosa [7]; Pseudomonas aeruginosa CDC 230, VIM/OXA): 8 µg/mL (≈ 22.1 µM) | MIC (Pseudomonas aeruginosa [7]; Pseudomonas aeruginosa CDC 231, KPC/OXA): >8 µg/mL | MIC (Pseudomonas aeruginosa [7]; Pseudomonas aeruginosa CDC 241, IMP/OXA): 8 µg/mL (≈ 22.1 µM) | MIC (Pseudomonas aeruginosa [7]; Pseudomonas aeruginosa CDC 246, NDM/OXA): >8 µg/mL | MIC (Pseudomonas aeruginosa [7]; Pseudomonas aeruginosa CDC 250, NDM/OXA): >8 µg/mL | MIC (Pseudomonas aeruginosa [7]; Pseudomonas aeruginosa CDC 356, KPC): 0.12 µg/mL (≈ 0.332 µM) | MIC (Pseudomonas aeruginosa [7]; Pseudomonas aeruginosa CDC 439, IMP): 8 µg/mL (≈ 22.1 µM) | MIC (Pseudomonas aeruginosa [7]; Pseudomonas aeruginosa CDC 444, VIM): 8 µg/mL (≈ 22.1 µM) | MIC (Pseudomonas aeruginosa [7]; Pseudomonas aeruginosa CDC 457, VIM): >8 µg/mL | MIC (Pseudomonas aeruginosa [7]; Pseudomonas aeruginosa CDC 516, KPC/AmpC): 0.25 µg/mL (≈ 0.692 µM) | MIC (Pseudomonas aeruginosa [7]; Pseudomonas aeruginosa CDC 518, KPC/AmpC): >8 µg/mL | MIC (Klebsiella pneumoniae; K. pneumoniae ATCC BAA-1705, QC organism): >8 µg/mL | MIC (Klebsiella pneumoniae; Klebsiella pneumoniae ATCC BAA-1705, ESBL/KPC): >8 µg/mL | MIC (Klebsiella pneumoniae; Klebsiella pneumoniae CDC 112, KPC): 4 µg/mL (≈ 11.1 µM) | MIC (Klebsiella pneumoniae; Klebsiella pneumoniae CDC 113, ESBL/KPC): 4 µg/mL (≈ 11.1 µM) | MIC (Klebsiella pneumoniae; Klebsiella pneumoniae CDC 115, ESBL/KPC): >8 µg/mL | MIC (Klebsiella pneumoniae; Klebsiella pneumoniae CDC 120, ESBL/KPC): >8 µg/mL | MIC (Klebsiella pneumoniae; Klebsiella pneumoniae CDC 126, ESBL/KPC): 0.015 µg/mL (≈ 0.0415 µM) | MIC (Klebsiella pneumoniae; Klebsiella pneumoniae CDC 129, ESBL/KPC): >8 µg/mL | MIC (Klebsiella pneumoniae; Klebsiella pneumoniae CDC 135, ESBL/VIM): >8 µg/mL | MIC (Klebsiella pneumoniae; Klebsiella pneumoniae CDC 138, ESBL/NDM): >8 µg/mL | MIC (Klebsiella pneumoniae; Klebsiella pneumoniae CDC 158, ESBL/NDM/OXA): 4 µg/mL (≈ 11.1 µM) | MIC (Klebsiella pneumoniae; Klebsiella pneumoniae MMX 9029, ESBL): 0.12 µg/mL (≈ 0.332 µM) | MIC, QC range (S. aureus ATCC 29213 [8]): (0.06-0.5) μg/mL | MIC (S. aureus ATCC 29213 [9]): 0.06 µg/mL (≈ 0.166 µM) | MIC (Escherichia coli [10]; E. coli ATCC 25922, QC organism): ≤0.008 µg/mL | MIC (Escherichia coli [10]; E. coli ATCC 35218, QC organism): ≤0.008 µg/mL | MIC (Escherichia coli [10]; Escherichia coli ATCC 35218, ESBL): ≤0.008 µg/mL | MIC (Escherichia coli [10]; Escherichia coli ATCC BAA-2471, NDM): >8 µg/mL | MIC (Escherichia coli [10]; Escherichia coli CDC 114, ESBL/KPC): 4 µg/mL (≈ 11.1 µM) | MIC (Escherichia coli [10]; Escherichia coli CDC 118, ESBL/NDM): 8 µg/mL (≈ 22.1 µM) | MIC (Escherichia coli [10]; Escherichia coli CDC 435, NDM): >8 µg/mL | MIC (Escherichia coli [10]; Escherichia coli CDC 451, KPC): >8 µg/mL | MIC (Escherichia coli [10]; Escherichia coli CDC 503, ESBL/NDM): >8 µg/mL | MIC (Escherichia coli [10]; Escherichia coli MMX 5745, KPC): 8 µg/mL (≈ 22.1 µM) | MIC (Escherichia coli [10]; Escherichia coli MMX 5755, ESBL): 8 µg/mL (≈ 22.1 µM) | MIC (Escherichia coli [10]; Escherichia coli MMX 5756, ESBL): 4 µg/mL (≈ 11.1 µM) | MIC (Escherichia coli [10]; Escherichia coli MMX 5758, ESBL): 8 µg/mL (≈ 22.1 µM) | MIC (Acinetobacter baumannii; Acinetobacter baumannii CDC 273, ESBL/OXA): >8 µg/mL | MIC (Acinetobacter baumannii; Acinetobacter baumannii CDC 274, ESBL/OXA): 8 µg/mL (≈ 22.1 µM) | MIC (Acinetobacter baumannii; Acinetobacter baumannii CDC 275, ESBL/OXA): 4 µg/mL (≈ 11.1 µM) | MIC (Acinetobacter baumannii; Acinetobacter baumannii CDC 277, ESBL/OXA): 8 µg/mL (≈ 22.1 µM) | MIC (Acinetobacter baumannii; Acinetobacter baumannii CDC 284, ESBL/OXA): 8 µg/mL (≈ 22.1 µM) | MIC (Acinetobacter baumannii; Acinetobacter baumannii CDC 307, OXA): 8 µg/mL (≈ 22.1 µM) | MIC (Acinetobacter baumannii; Acinetobacter baumannii CDC 308, ESBL/OXA): 4 µg/mL (≈ 11.1 µM) | MIC (Acinetobacter baumannii; Acinetobacter baumannii CDC 311, OXA): 2 µg/mL (≈ 5.53 µM) | MIC (Acinetobacter baumannii; Acinetobacter baumannii CDC 312, OXA): 2 µg/mL (≈ 5.53 µM) | MIC (Acinetobacter baumannii; Acinetobacter baumannii CDC 313, ESBL/OXA): 2 µg/mL (≈ 5.53 µM) | MIC (Acinetobacter baumannii; Acinetobacter baumannii NCTC 13304, OXA): 1 µg/mL (≈ 2.77 µM) | MIC, QC range (Escherichia coli [11]): (0.008-0.06) μg/mL | MIC ([12]; Staphylococcus aureus NRS 1 (hVISA)): 4 µg/mL (≈ 11.1 µM) | MIC ([12]; Staphylococcus aureus NRS 2): 4 µg/mL (≈ 11.1 µM) | MIC ([12]; Staphylococcus aureus NRS 3): >8 µg/mL | MIC ([12]; Staphylococcus aureus NRS 4): 4 µg/mL (≈ 11.1 µM) | MIC ([12]; Staphylococcus aureus NRS 13): 0.12 µg/mL (≈ 0.332 µM) | MIC ([12]; Staphylococcus aureus NRS 18): 4 µg/mL (≈ 11.1 µM) | MIC ([12]; Staphylococcus aureus NRS 22): 8 µg/mL (≈ 22.1 µM) | MIC ([12]; Staphylococcus aureus NRS 24 (hVISA)): >8 µg/mL | MIC ([12]; Staphylococcus aureus NRS 27): 8 µg/mL (≈ 22.1 µM) | MIC, QC range (Pseudomonas aeruginosa [13]): (0.5-4) μg/mL

Penicillin
MIC ([4]; S. agalactiae MMX 3741, ERY^R CC^R): 0.03 µg/mL | MIC ([4]; S. agalactiae MMX 3743, ERY^R CC^R): 0.06 µg/mL | MIC ([4]; S. agalactiae MMX 4077, ERY^R CC^R): 0.06 µg/mL | MIC ([4]; S. agalactiae MMX 4079, ERY^R CC^R Pen^R MEM^R): 2 µg/mL | MIC ([4]; S. agalactiae MMX 4086, ERY^R CC^R): 0.06 µg/mL | MIC ([4]; S. pyogenes MMX 3068, Ery^R): ≤0.008 µg/mL | MIC ([4]; S. pyogenes MMX 3820, ERY^R CLI^R): ≤0.008 µg/mL | MIC ([4]; S. pyogenes MMX 3919, ERY^R): ≤0.008 µg/mL | MIC ([4]; S. pyogenes MMX 3929, ERY^R CC^R): ≤0.008 µg/mL | MIC ([4]; S. pyogenes MMX 5091, ERY^R CC^R): ≤0.008 µg/mL | MIC ([14]; S. pneumoniae MMX 880, Lev^R SXT^R CC^R Ery^R Pen^R): 2 µg/mL | MIC ([14]; S. pneumoniae MMX 937, Mem^R SXT^R CC^R Ery^R Pen^R): 4 µg/mL | MIC ([14]; S. pneumoniae MMX 3959, CC^R Ery^R): 0.12 µg/mL | MIC ([14]; S. pneumoniae MMX 5440, Mem^R SXT^R CC^R Ery^R Pen^R): 4 µg/mL | MIC ([14]; S. pneumoniae MMX 5445, Mem^R SXT^R CC^R Ery^R Pen^R): 4 µg/mL | MIC ([14]; S. pneumoniae MMX 6837 (ATCC 49619), QC): 0.25 µg/mL | MIC ([14]; S. pneumoniae MMX 8133, Mem^R SXT^R CC^R Ery^R Pen^R): 4 µg/mL | MIC, CLSI QC range [6]: (0.25-1) μg/mL
